These results are taken from patent US8349851B2, “JAK kinase modulating compounds and methods of use thereof” (Ambit Biosciences Corp., priority 2009, dated 2013).

Structures can show the parent of a compound that is named as a salt.

Experiment [1] concerns csTF-1 cells (GM-CSFR/JAK2/STAT5 pathway). Nature of the experiment: csTF-1 cell-based reporter assay. More on the design: species or system human. Conditions: Homo sapiens; GM-CSF at 2 ng/mL, 4 hours; read-out: Cell Assay: CS0017: CS TF-1 reporter assay: IC50. As to the method: csTF-1 Cell-based Reporter Assay
csTF-1 cells are derived from the human erythroleukemia cell line that is growth dependent on GM-CSF and has an intact GM-CSFR/JAK2/STAT5 pathway. The cell line contains stably integrated beta-lactamase reporter gene under the control of the […] (irf 1) response element recognized by the activated transcription factor STATS. csTF-1 cells (Invitrogen K1219) were washed with assay media (97% OPTIMEM/0.5% dialyzed FBS/0.1 mM NEAA/1 mM Na pyr/P/S) and seeded in the same media at 5×10^5 cell/mL in T150 flask. After 16 hour incubation, cells were seeded at 2×10^5 cell/well in 50 μl volume, into Costar, clear bottom, 96-well assay plates. Serial dilutions of compounds were added to the plates with final DMSO concentration at 0.5% and GM-CSF at 2 ng/mL and the plates were then incubated at […] and 5% CO2 for 4 hours. The plates were brought to room temperature before adding Substrate Mixture according to manufacturer's protocol (Invitrogen, Catalog #K1085). The assay plates containing the substrate mixture were incubated in the dark at room temperature for 2 hours. Blue and green fluorescence was measured with excitation at 409 nm and emission at 460 nm (for blue) and excitation at 409 nm and emission at 530 nm (for green) using Spectra Max Gemini EM.

A further experiment concerns the target T1, JAK3 (Homo sapiens, UniProt P52333).
T1 construct: made in house
Nature of the experiment: Competition binding assay, JAK3. Particulars: read-out: Binding Assay: JAK3 (active_KD, ENZ). The source says:
(§1) Competition Binding Assay to Determine Binding Constants (Kd) of the Compounds Against JAK Kinases
(§2) Competition binding assays used herein were developed, validated and performed as described in Fabian et al., Nature Biotechnology 2005, 23,329-336. Kinases were produced as fusions to T7 phage (See, Fabian et al. or WO04/015142) or alternatively, the kinases were expressed in HEK-293 cells and subsequently tagged with DNA for PCR detection (See, WO08/005310). For the binding assays, streptavidin-coated magnetic beads were treated with biotinylated affinity ligands for 30 min at rt to generate affinity resins. The liganded beads were blocked with excess biotin and washed with blocking buffer (SeaBlock (Pierce), 1% BSA, 0.05% Tween 20, 1 mM DTT) to remove unbound ligand and to reduce non-specific binding. […] Test compounds were prepared as 100× stocks in DMSO and rapidly diluted into the aqueous environment. DMSO was added to control assays lacking a test compound. Primary screen interactions were performed in polypropylene 384-well plates in a final volume of 34 μL, while Kd determinations were performed in polystyrene 96-well plates in a final volume of 135 μL. […] The kinase concentration in the eluates was measured by quantitative PCR. Each kinase was tested individually against each compound. Kds were determined using eleven serial threefold dilutions. A selectivity score, which is a quantitative measure of selectivity of a compound against a panel of enzymes, may be calculated for a compound by dividing the number of enzymes for which a compound meets a set criteria, (for example, a binding constant of 100 nM or less), by the total number of enzymes tested.

Another experiment addresses T2, JAK2 (Homo sapiens, UniProt O60674).
T2 construct: made in house
Nature of the experiment: Competition binding assay, JAK2. Conditions: read-out: Binding Assay: JAK2 (active_KD).
Description: as §1, §2

The target in another experiment is T3, AuroraB (Homo sapiens, UniProt Q96GD4).
T3 construct: made in house
Nature of the experiment: Competition binding assay, Aurora B.
Description: Methods for determining binding constant against Aurora B kinase are known to one of skill in the art. Exemplary methods are described in U.S. provisional application No. 61/294,413, and Fabian et al., Nature Biotechnology 2005, 23,329-336.
as §2

T1 sequence (P52333 822-1111 limits assumed): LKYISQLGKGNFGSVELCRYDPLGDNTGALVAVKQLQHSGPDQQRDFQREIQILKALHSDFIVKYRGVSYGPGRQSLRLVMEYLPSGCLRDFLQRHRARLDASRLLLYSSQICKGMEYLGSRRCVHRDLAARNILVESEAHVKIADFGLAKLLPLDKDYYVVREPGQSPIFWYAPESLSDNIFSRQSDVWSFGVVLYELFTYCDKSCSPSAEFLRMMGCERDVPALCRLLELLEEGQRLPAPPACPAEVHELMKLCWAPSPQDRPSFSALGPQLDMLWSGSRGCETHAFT
T2 sequence (O60674 849-1124 limits assumed): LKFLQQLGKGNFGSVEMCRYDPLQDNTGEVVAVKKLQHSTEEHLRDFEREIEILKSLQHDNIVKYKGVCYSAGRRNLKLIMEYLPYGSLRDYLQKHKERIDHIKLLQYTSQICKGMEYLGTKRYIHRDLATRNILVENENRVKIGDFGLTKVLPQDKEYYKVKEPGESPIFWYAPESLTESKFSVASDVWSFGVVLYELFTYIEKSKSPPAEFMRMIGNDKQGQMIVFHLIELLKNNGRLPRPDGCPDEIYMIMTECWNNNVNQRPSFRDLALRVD
T3 sequence (Q96GD4 whole entry): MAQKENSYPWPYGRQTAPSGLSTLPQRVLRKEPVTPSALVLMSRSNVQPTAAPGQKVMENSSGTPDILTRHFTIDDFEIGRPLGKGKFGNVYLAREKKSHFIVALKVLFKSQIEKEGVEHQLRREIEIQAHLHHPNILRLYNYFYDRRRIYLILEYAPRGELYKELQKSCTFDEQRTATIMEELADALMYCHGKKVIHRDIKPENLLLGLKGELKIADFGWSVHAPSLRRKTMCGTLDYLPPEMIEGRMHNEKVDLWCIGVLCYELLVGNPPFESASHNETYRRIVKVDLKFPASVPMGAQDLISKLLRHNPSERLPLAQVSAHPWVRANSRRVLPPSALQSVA

With `OC(c1ccc(F)cc1)c1nc(Nc2cc[nH]n2)c2ccccc2n1` (racemic) [Example 6, (R,S)-(4-(1H-pyrazol-3-ylamino)quinazolin-2-yl)(4-fluorophenyl)methanol], the IC50 in experiment [1] is not above 100 nM. The Kd at JAK3 is 10 to 100 nM; on JAK2, not above 1 nM; on AuroraB it was more than 200 nM.
Taken in the same sequence, the figures for `Fc1ccc(C(F)c2nc(Nc3cc[nH]n3)c3ccccc3n2)cc1` (racemic) [Example 7, (R,S)-2-(fluoro(4-fluorophenyl)methyl)-N-(1H-pyrazol-3-yl)quinazolin-4-amine] were 100 to 500 nM, 10 to 100 nM, not above 1 nM and more than 200 nM.
As to `Cc1cc(Nc2nc(C(O)c3ccc(F)cc3)nc3ccccc23)n[nH]1` (racemic) [Example 12, (R,S)-(4-fluorophenyl)(4-(5-methyl-1H-pyrazol-3-ylamino)quinazolin-2-yl)methanol hydrochloride], the IC50 in experiment [1] was not above 100 nM. Moreover, at AuroraB, the Kd lay within 50 to 200 nM.
On to `COC(c1ccc(F)cc1)c1nc(Nc2cc(C)[nH]n2)c2ccccc2n1` (racemic) [Example 13, (R,S)-2-((4-fluorophenyl)(methoxy)methyl)-N-(5-methyl-1H-pyrazol-3-yl)quinazolin-4-amine], for which the IC50 in experiment [1] lay within 100 to 500 nM. Further, the Kd on JAK3 is 10 to 100 nM; on JAK2, not above 1 nM; at AuroraB, more than 200 nM.
For the compound `Cc1cc(Nc2nc(C(N)c3ccc(F)cc3)nc3ccccc23)n[nH]1` (racemic) [Example 14, (R,S)-2-(amino(4-fluorophenyl)methyl)-N-(5-methyl-1H-pyrazol-3-yl)quinazolin-4-amine], the half-inhibitory concentration (IC50) in experiment [1] lay in the range of 100 to 500 nM. The Kd was 10 to 100 nM on JAK3, 1 to 10 nM on JAK2 and more than 200 nM at AuroraB.
As for `N#Cc1cc(Nc2nc(C(O)c3ccc(F)cc3)nc3ccccc23)n[nH]1` (racemic) [Example 15, (R,S)-3-(2-((4-fluorophenyl)(hydroxy)methyl)quinazolin-4-ylamino)-1H-pyrazole-5-carbonitrile], the IC50 in experiment [1] is more than 500 nM. Besides, the Kd at JAK3 was more than 100 nM; at JAK2, more than 10 nM; on AuroraB, more than 200 nM.
With `Cc1cc(Nc2nc(C(O)c3ccc(F)cc3)nc3cccc(F)c23)n[nH]1` (racemic) [Example 16, (R,S)-(5-fluoro-4-(5-methyl-1H-pyrazol-3-ylamino)quinazolin-2-yl)(4-fluorophenyl)methanol], the IC50 in experiment [1] was in the range of 100 to 500 nM. Moreover, the figures for the Kd on JAK3, at JAK2 and at AuroraB were more than 100 nM, more than 10 nM and more than 200 nM, respectively.
Turning to `Cc1cc(Nc2nc(C(O)c3ccc(F)cc3)nc3cc(C(F)(F)F)ccc23)n[nH]1` (racemic) [Example 18, (R,S)-(4-fluorophenyl)(4-(5-methyl-1H-pyrazol-3-ylamino)-7-(trifluoromethyl)quinazolin-2-yl)methanol], the concentration for half-maximal inhibition (IC50) in experiment [1] fell in the range of 100 to 500 nM. Further, the Kd on JAK3 was 10 to 100 nM; on JAK2, 1 to 10 nM; at AuroraB, more than 200 nM.
Consider `OC(c1ccc(F)cc1)c1nc(Nc2cc[nH]n2)c2ccc(I)cc2n1` (racemic) [Example 23, (R,S)-(4-(1H-pyrazol-3-ylamino)-7-iodoquinazolin-2-yl)(4-fluorophenyl)methanol], for which the IC50 in experiment [1] lay in the range of 100 to 500 nM. Further, the figures for the Kd at JAK3, on JAK2 and at AuroraB were more than 100 nM, 1 to 10 nM and more than 200 nM, respectively.
Turning to `Cc1ccc2c(Nc3cc(C)[nH]n3)nc(C(O)c3ccc(F)cc3)nc2c1` (racemic) [Example 25, (R,S)-(4-fluorophenyl)(7-methyl-4-(5-methyl-1H-pyrazol-3-ylamino)quinazolin-2-yl)methanol], in experiment [1], the IC50 was not above 100 nM. Further, the results for the Kd at JAK3, on JAK2 and at AuroraB were 10 to 100 nM, not above 1 nM and more than 200 nM, respectively.
Consider `COc1ccc2c(Nc3cc[nH]n3)nc(C(O)c3ccc(F)cc3)nc2c1` (racemic) [Example 29, (R,S)-(4-(1H-pyrazol-3-ylamino)-7-methoxyquinazolin-2-yl)(4-fluorophenyl)methanol], for which, in experiment [1], the IC50 was not above 100 nM. Also, the results for the Kd at JAK3, on JAK2 and at AuroraB were 10 to 100 nM, not above 1 nM and more than 200 nM, respectively.
With `COc1ccc2c(Nc3cc(C)[nH]n3)nc(C(O)c3ccc(F)cc3)nc2c1` (racemic) [Example 31, (R,S)-(4-fluorophenyl)(7-methoxy-4-(5-methyl-1H-pyrazol-3-ylamino)quinazolin-2-yl)methanol], the IC50 in experiment [1] is not above 100 nM. For the same compound, the Kd on JAK3 was 10 to 100 nM; at JAK2, not above 1 nM; at AuroraB, more than 200 nM.
Consider `Cc1cc(Nc2nc(C(O)c3ccc(F)cc3)nc3cc(O)ccc23)n[nH]1` (racemic) [Example 36, (R,S)-2-((4-fluorophenyl)(hydroxy)methyl)-4-(5-methyl-1H-pyrazol-3-ylamino)quinazolin-7-ol], for which, in experiment [1], the 50% inhibitory concentration (IC50) is not above 100 nM. In addition, the Kd on JAK3 is 10 to 100 nM; at JAK2, not above 1 nM; at AuroraB, 20 to 50 nM.
In the case of `Cc1cc(Nc2nc(C(O)c3ccc(F)cc3)nc3cc(OCCN4CCOCC4)ccc23)n[nH]1` (racemic) [Example 38, (R,S)-(4-fluorophenyl)(4-(5-methyl-1H-pyrazol-3-ylamino)-7-(2-morpholinoethoxy)quinazolin-2-yl)methanol], the IC50 in experiment [1] is 100 to 500 nM. Further, the Kd at JAK3 is not above 10 nM; at JAK2, not above 1 nM; at AuroraB it was more than 200 nM.
Consider `Cc1cc(Nc2nc(C(O)c3ccc(F)cc3)nc3cc(OCCO)ccc23)n[nH]1` (racemic) [Example 39, (R,S)-2-(2-((4-fluorophenyl)(hydroxy)methyl)-4-(5-methyl-1H-pyrazol-3-ylamino)quinazolin-7-yloxy)ethanol], for which the IC50 in experiment [1] is not above 100 nM. The Kd at JAK3 is not above 10 nM; at JAK2, not above 1 nM; at AuroraB, more than 200 nM.
For the compound `Cc1cc(Nc2nc(C(CC#N)c3ccc(F)cc3)nc3ccccc23)n[nH]1` (stereo not shown) [Example 68, 3-(4-fluorophenyl)-3-(4-(5-methyl-1H-pyrazol-3-ylamino)quinazolin-2-yl)propanenitrile], in experiment [1], the IC50 was not above 100 nM. In addition, the figures for the Kd at JAK3 and on JAK2 were 10 to 100 nM and 1 to 10 nM, respectively.
For `Cc1cc(Nc2nc(C(NC3CC3)c3ccc(F)cc3)nc3ccccc23)n[nH]1` (stereo not shown) [Example 69, 2-((cyclopropylamino)(4-fluorophenyl)methyl)-N-(5-methyl-1H-pyrazol-3-yl)quinazolin-4-amine], in that order: 100 to 500 nM, 10 to 100 nM and not above 1 nM.
As to `Cc1cc(Nc2nc(C(CS(C)(=O)=O)c3ccc(F)cc3)nc3ccccc23)n[nH]1` (stereo not shown) [Example 70, 2-(1-(4-fluorophenyl)-2-(methylsulfonyl)ethyl)-N-(5-methyl-1H-pyrazol-3-yl)quinazolin-4-amine], in experiment [1], the half-inhibitory concentration (IC50) was in the range of 100 to 500 nM. Further, the Kd was 10 to 100 nM on JAK3 and not above 1 nM at JAK2.
Turning to `Cc1cc(Nc2nc(C(CCN)c3ccc(F)cc3)nc3ccccc23)n[nH]1` (stereo not shown) [Example 71, 2-(3-amino-1-(4-fluorophenyl)propyl)-N-(5-methyl-1H-pyrazol-3-yl)quinazolin-4-amine], the IC50 in experiment [1] was more than 500 nM. Further, the Kd lay in the range of 10 to 100 nM on JAK3 and 1 to 10 nM at JAK2.
Taken in the same sequence, the figures for `COc1cc(Nc2nc(C(=O)c3ccc(F)cc3)nc3ccccc23)n[nH]1` [Example 73, (4-fluorophenyl)(4-(5-methoxy-1H-pyrazol-3-ylamino)quinazolin-2-yl)methanone] were 100 to 500 nM, 10 to 100 nM and not above 1 nM.

Usually IC50 stands for the point on the concentration scale where inhibition reaches its midpoint.
